Patent publication US9790469B2, “Established human brown adipocyte line and method for differentiation from an hMADS cell line” (CENTRE NATIONAL DE LA RECHERCHE SCIENTIFIQUE (CNRS), priority 2008, dated 2017)

What was measured:
hMADS-2 cells [1] = experiment: Stimulation of UCP1 expression by β-adrenergic agonists in hMADS-2 cells differentiated into brown adipocytes; type: cell-based, human; conditions: stimulation for 6 h at 10-100 nM; cells with 100 nM rosiglitazone days 3 to 16
Description: A) adipocytic differentiation of hMADS-2 cells was carried out in the presence of 100 nM rosiglitazone on the days indicated and mRNA levels were determined on day 17 by quantitative RT-PCR. (B, C) differentiation was obtained in the presence of 100 nM rosiglitazone between days 3 and 16, in the absence or the presence during the 6 last hours of β-adrenergic agonists at the indicated concentrations. The results represent the mean±SD of 3 (A) and 2 (B) independent experiments carried out with various series of cells; they are expressed by taking as 100% the values obtained either during treatment between days 3 and 9 (A) or in the absence of β-adrenergic agonists (B, C).
(§1) RNA purification and analysis: RNA extraction, the use of reverse transcriptase and determination of mRNA levels by real-time quantitative RT-PCR have been described (Zaragosi, L. E et al., Stem Cells, 2006. 24(11): p. 2412-9; Elabd, C, et al., Biochem Biophys Res Commun, 2007. 361(2): p. 342-8; Bezy, O., et al., J Biol Chem, 2005. 280(12): p. 11432-8). Expression of the genes of interest was normalized compared with the one of the TBP gene and was quantified using the ΔCt comparative method. […]
Immunoblot analysis: Total cellular lysates are analyzed by immunoblot as previously described (Bezy, O., et al., J Biol Chem, 2005. 280(12): p. 11432-8). […]

[2] = system: hMADS-2 cells differentiated into white adipocytes; experiment: Induction of a brown phenotype in hMADS-2 cells previously differentiated into white adipocytes; type: cell-based, human; conditions: for UCP1 gene expression: replacement of rosiglitazone, 10 μM, results not shown; for expression of the UCP1 protein: exposure between days 14 and 16 with specific PPAR ligands
Description: Initially hMADS-2 cells were differentiated into white adipocytes with 100 nM rosiglitazone present between days 3 and 9. Once eliminated, the ligand is added or not added on day 14 and during the following days at the indicated […] concentrations.
The results are expressed as stimulation factor by taking as 1 the values obtained on day 16 after exposure to 100 nM rosiglitazone between days 3 and 9; the values represent the mean±SD of 2 independent experiments carried out with various series of cells.
(§2) Expression of the genes of interest was normalized compared with the one of the TBP gene and was quantified using the ΔCt comparative method. The sequences of oligonucleotide primers, obtained using the Primer Express Software (Perkin Elmer Life Sciences), are described in Table 1 below.
The primary antibodies obtained from the rabbit, anti-human UCP1 and anti-TBP, are products from Santa Cruz Biotechnology (Santa Cruz, Calif., USA) and the secondary antibodies (conjugated with horseradish peroxidase) are products from Promega (Charbonnières, France). The “Enhanced Chemiluminescence” system (Millipore, Saint-Quentin-Yvelines, France) was used for detection.

hMADS-2 cells [3] = experiment: Adipocytic differentiation of hMADS-2 cells (Oil Red O lipid staining, GPDH activity, PPARγ mRNA); type: cell-based, human
Source text: as §2

hMADS-2 cells [4] = experiment: Oxygen consumption and respiratory uncoupling of hMADS-2 cells (respirometer); type: cell-based, human
Description: On day 20, oxygen consumption (A), decoupling of oxidative phosphorylation (B) and stimulation of oxygen consumption by isoprenaline (C) were measured according to the protocol described in “Materials and Methods”. […] Determination of oxygen consumption: Oxygen consumption was measured using two-chamber injection respirometer equipped with a Peltier thermostat, Clark electrodes and integrated magnetic stirrers (Oroboros, Innsbruck, Austria). Measurements were made at 37° C. with constant stirring in a volume of 2 ml of DMEM/F12 medium (1:1, v/v) containing 10% fetal calf serum. Before each measurement, the medium present in the chambers was equilibrated with air for 30 min, and then the freshly-trypsinized cells were transferred to this medium. […] The respiratory chain was blocked with 1 μg/ml antimycin A. Oxygen consumption was calculated using the DataGraph software (Oroboros Software). Basal respiratory activity corresponds to oxygen consumption sensitive to antimycin A. Respiratory activity was stimulated in the presence of 1 μM isoprenaline added extemporaneously in the injection chamber, with measurements made as described above.

[5] = system: human brown adipocytes immortalized by transgenesis and expressing β3-adrenergic receptors; conditions: Zilberfarb 1997; Jockers 1998; cited from earlier work
hMADS-2 cells [6] = experiment: Expression of brown adipocyte markers and related genes in hMADS-2 cells (quantitative RT-PCR, immunoblot); type: cell-based, human; conditions: brown phenotype; ratio 1 for the white phenotype (days 3 to 9)
Description: Differentiation of hMADS-2 cells was carried out as described in FIG. 1. On day 16, levels of UCP1 (A), UCP2 (C), CIDEA (D) and CPT1B (E) mRNA were determined by quantitative RT-PCR. The results represent the mean±SD of 3 independent experiments carried out with various series of cells; they are expressed by taking as 100% the value obtained in the presence of 500 nM rosiglitazone. Levels of the UCP1 protein (B) were determined by immunoblotting on 2 different series of cells using TBP as endogenous internal standard.
Adipocytic differentiation of hMADS-2 cells was carried out in the presence of either rosiglitazone at 100 nM (A) or at the indicated concentrations (B). Levels of PRDM16, PGC-1α, PGC-1β and PPARα mRNA were determined by quantitative RT-PCR on day 16 (A) and day 17 (B). […]
Adipocytic differentiation of hMADS-2 cells was carried out in the presence of 100 nM rosiglitazone. On day 16, Bcl-2 and Bax mRNA levels were determined by quantitative RT-PCR. […]
as §1, with “11432-8).” for “11432-8). Expression of the genes of interest was normalized compared with the one of the TBP gene and was quantified using the ΔCt comparative method.”

[7] = 100 nM, days 3 to 20 (brown) versus days 3 to 9 (white)

C[C@H](Cc1ccc2c(c1)OC(C(=O)[O-])(C(=O)[O-])O2)NC[C@H](O)c1cccc(Cl)c1.[Na+].[Na+] [CL316243]
expression of UCP1 mRNA and UCP1 protein (hMADS-2 cells [1]): significantly increased

O=C(Nc1ccccc1)c1cc([N+](=O)[O-])ccc1Cl [GW 9662]
expression of the UCP-1 gene ([2]; PPARγ antagonist added, cells differentiated beforehand into white adipocytes): does not allow expression of the UCP-1 gene
differentiation of hMADS cells into adipocytes (hMADS-2 cells [3]; PPARγ antagonist added to the differentiation medium): prevents

CC/C=C\C/C=C\C/C=C\C/C=C\C/C=C\C/C=C\CCC(=O)O [docosahexaenoic acid]
UCP1 gene expression [2]: no effect

Cc1cccc(Nc2cc(Cl)nc(SCC(=O)O)n2)c1C [Wy14643]
expression of the UCP1 protein [2]: not inducing the expression of the UCP1 protein

CCCCC/C=C\C/C=C\C/C=C\C/C=C\CCCC(=O)O [arachidonic acid]
UCP1 gene expression [2]: no effect

CC(C)NCC(O)c1ccc(O)c(O)c1 (stereo not shown) [isoproterenol]
expression of UCP1 mRNA and UCP1 protein (hMADS-2 cells [1]): significantly increased
stimulation of oxygen consumption (hMADS-2 cells [4]; 1 μM, cells with brown phenotype): important stimulation

CC(C)(C)NCC(O)COc1cccc2[nH]c(=O)[nH]c12 (stereo not shown) [CGP12177A]
lipolytic activity [5]: only weak lipolytic activity

CCCc1c(OCCCOc2ccc(OCC(=O)O)cc2)ccc(C(C)=O)c1O [L165041]
expression of the UCP1 protein [2]: not inducing the expression of the UCP1 protein

CN(CCOc1ccc(CC2SC(=O)NC2=O)cc1)c1ccccn1 (stereo not shown) [rosiglitazone]
ratio of Bcl-2 to Bax (hMADS-2 cells [6]): 3.7
increase factor of total respiratory activity (hMADS-2 cells [4]; [7]): 3
increase factor of uncoupled respiratory activity (hMADS-2 cells [4]; [7]): 2.5

CC/C=C\C/C=C\C/C=C\C/C=C\C/C=C\CCCC(=O)O [eicosapentaenoic acid]
UCP1 gene expression [2]: no effect

B1: BMP7: Bone Morphogentic Protein 7 (BMP7) (protein, UniProt P18075 293-431, looked up)
Bone morphogenetic protein 7: STGSKQRSQNRSKTPKNQEALRMANVAENSSSDQRQACKKHELYVSFRDLGWQDWIIAPEGYAAYYCEGECAFPLNSYMNATNHAIVQTLVHFINPETVPKPCCAPTQLNAISVLYFDDSSNVILKKYRNMVVRACGCH
UCP-1 protein expression ([2]; cells differentiated beforehand into white adipocytes): weak increase
differentiation of hMADS cells into adipocytes (hMADS-2 cells [3]; BMP7 alone, in the absence of rosiglitazone): does not enable their differentiation into adipocytes
